The values below come from US8633206B2, “Pyrrolo[2,3-D]pyrimidine compounds” (Pfizer Inc., priority 2009, dated 2014).

Format in all cases: biochemical
In one assay the target is JAK2 (Homo sapiens (Human), UniProt O60674). As to the kind of experiment: JAK enzymatic assay (peptide mobility shift), JAK2. To be noted: recombinant JAK2 2 nM, JAKtide peptide, 150 minutes. An excerpt: Recombinant JAK1 (Catalog Number PV4775), JAK2 (Catalog Number PV4210) and JAK3 (Catalog Number PV3855) were purchased from (Invitrogen Corporation, Madison, Wis.). Tyk2 (His-Tyk2 (888-1182, C936S, C1142S)) used in this study was expressed and purified at Pfizer Laboratories. Adenosine 5′-triphosphate (ATP) was obtained from (Sigma Chemical Company, St. Louis, Mo.). […] Coating Reagent 3 was purchased from (Caliper Life Sciences, Hopkinton, Mass.).
Chain of JAK2 (O60674 808-1132): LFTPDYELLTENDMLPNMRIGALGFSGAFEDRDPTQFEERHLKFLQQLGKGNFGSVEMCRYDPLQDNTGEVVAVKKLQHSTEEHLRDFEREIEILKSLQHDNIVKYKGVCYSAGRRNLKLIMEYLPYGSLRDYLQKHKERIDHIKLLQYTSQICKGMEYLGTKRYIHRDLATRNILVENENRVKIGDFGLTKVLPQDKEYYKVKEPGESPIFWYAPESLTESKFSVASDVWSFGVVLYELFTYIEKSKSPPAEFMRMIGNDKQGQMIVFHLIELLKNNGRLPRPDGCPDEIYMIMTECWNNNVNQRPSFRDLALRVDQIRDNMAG
A peptide mobility shift assay was used to quantify the phosphorylation of the JAKtide (JAK2 and JAK3) or the IRS-1 peptide (JAK1 and Tyk2). Reactions were carried out in a 384-well plate (Matrical MP-101) in a 10 L total volume. […] Compounds were diluted serially in 100% dimethyl sulfoxide and tested in an 11 point dose response in duplicate or quadruplicate (200 nl of compound/DMSO was added per 10 L reaction). The reactions were initiated by the addition of enzyme to the final concentration of 2 nM JAK2, 1 nM JAK3, 12 nM Tyk2 or 20 nM JAK1. The assay was run for 240 minutes for JAK1, 150 minutes for JAK2, 90 minutes for JAK3 and 70 minutes for Tyk2. The assays were stopped at the specified times with 20 uL of 140 mM HEPES, 22.5 mM EDTA and 0.15% Coating Reagent 3. The plates were placed on a LabChip 3000 (LC3000) instrument from (Caliper Life Sciences) to measure the formation of phosphorylated peptide. Data was analyzed using Hits Well Analyzer Software from (Caliper Life Sciences) to obtain the amount of product formed.
(§1) Data was then imported into an internal application where each data point is expressed as % inhibition based on uninhibited and no enzyme controls. Dose-response data is then fit using a 4 parameter logistic equation (Equation 1) to determine an IC50.

A further assay addresses JAK3 (Homo sapiens (Human), UniProt P52333). As to the kind of experiment: JAK enzymatic assay (peptide mobility shift), JAK3. Particulars: recombinant JAK3 1 nM, JAKtide peptide, 90 minutes. The method, then: (§2) Recombinant JAK1 (Catalog Number PV4775), JAK2 (Catalog Number PV4210) and JAK3 (Catalog Number PV3855) were purchased from (Invitrogen Corporation, Madison, Wis.). […] Adenosine 5′-triphosphate (ATP) was obtained from (Sigma Chemical Company, St. Louis, Mo.). […] Coating Reagent 3 was purchased from (Caliper Life Sciences, Hopkinton, Mass.).
(§3) Compounds were diluted serially in 100% dimethyl sulfoxide and tested in an 11 point dose response in duplicate or quadruplicate (200 nl of compound/DMSO was added per 10 L reaction). […] The assay was run for 240 minutes for JAK1, 150 minutes for JAK2, 90 minutes for JAK3 and 70 minutes for Tyk2. […] The plates were placed on a LabChip 3000 (LC3000) instrument from (Caliper Life Sciences) to measure the formation of phosphorylated peptide. Data was analyzed using Hits Well Analyzer Software from (Caliper Life Sciences) to obtain the amount of product formed.
as §1

The target of another assay is JAK1 (Homo sapiens (Human), UniProt P23458). As to the kind of experiment: JAK enzymatic assay (peptide mobility shift), JAK1. Particulars: recombinant JAK1 20 nM, IRS-1 peptide, 240 minutes. As for the experimental part: as §2, §3, §1
Chain of JAK1 (P23458 whole entry): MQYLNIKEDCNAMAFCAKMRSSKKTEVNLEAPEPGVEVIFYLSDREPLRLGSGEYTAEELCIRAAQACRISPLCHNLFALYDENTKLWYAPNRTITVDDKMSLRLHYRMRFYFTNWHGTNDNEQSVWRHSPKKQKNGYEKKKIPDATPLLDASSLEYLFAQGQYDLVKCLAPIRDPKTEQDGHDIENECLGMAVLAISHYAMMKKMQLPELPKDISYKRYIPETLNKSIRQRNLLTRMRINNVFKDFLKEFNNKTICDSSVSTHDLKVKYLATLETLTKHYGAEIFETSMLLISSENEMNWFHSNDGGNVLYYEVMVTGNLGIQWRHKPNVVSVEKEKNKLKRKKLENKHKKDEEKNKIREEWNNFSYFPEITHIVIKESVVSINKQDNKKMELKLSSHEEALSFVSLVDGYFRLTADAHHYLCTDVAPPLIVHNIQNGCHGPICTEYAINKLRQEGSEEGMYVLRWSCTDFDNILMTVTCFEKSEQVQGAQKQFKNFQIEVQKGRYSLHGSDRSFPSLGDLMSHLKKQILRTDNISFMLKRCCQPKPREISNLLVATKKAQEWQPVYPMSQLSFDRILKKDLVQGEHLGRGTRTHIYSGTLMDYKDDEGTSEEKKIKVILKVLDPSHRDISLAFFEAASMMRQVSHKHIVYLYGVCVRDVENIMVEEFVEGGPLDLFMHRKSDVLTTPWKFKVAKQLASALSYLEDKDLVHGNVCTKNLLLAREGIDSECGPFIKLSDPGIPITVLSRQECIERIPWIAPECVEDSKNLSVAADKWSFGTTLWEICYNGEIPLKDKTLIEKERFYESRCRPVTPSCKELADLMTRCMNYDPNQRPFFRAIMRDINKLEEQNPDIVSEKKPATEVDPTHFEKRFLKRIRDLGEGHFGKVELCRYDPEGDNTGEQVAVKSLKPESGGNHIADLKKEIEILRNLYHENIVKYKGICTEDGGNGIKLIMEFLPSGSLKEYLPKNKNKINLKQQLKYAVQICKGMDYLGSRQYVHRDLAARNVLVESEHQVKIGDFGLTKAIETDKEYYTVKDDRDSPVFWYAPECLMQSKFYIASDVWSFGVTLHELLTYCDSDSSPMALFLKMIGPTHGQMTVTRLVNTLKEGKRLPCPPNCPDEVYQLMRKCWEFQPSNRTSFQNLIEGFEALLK

Chain of JAK3 (P52333 781-1124): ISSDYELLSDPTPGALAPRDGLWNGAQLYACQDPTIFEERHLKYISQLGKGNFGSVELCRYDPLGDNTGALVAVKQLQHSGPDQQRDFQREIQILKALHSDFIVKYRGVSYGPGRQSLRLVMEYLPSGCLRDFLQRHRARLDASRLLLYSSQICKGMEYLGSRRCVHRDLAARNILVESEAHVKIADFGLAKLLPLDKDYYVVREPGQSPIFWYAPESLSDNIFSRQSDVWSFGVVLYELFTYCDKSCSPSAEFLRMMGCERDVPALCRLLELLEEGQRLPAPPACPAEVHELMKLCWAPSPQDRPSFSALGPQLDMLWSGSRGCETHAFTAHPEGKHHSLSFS

For `CN(c1ncnc2[nH]ccc12)[C@H]1CC[C@H](CS(=O)(=O)N2CCC[C@H](CS(N)(=O)=O)C2)CC1` [Example 66, 1-{1-[({trans-4-[methyl(7H-pyrrolo[2,3-d]pyrimidin-4-yl)amino]cyclohexyl}-methyl)sulfonyl]piperidin-3-yl}-methanesulfonamide], the values for the 50% inhibitory concentration (IC50) on JAK2, at JAK3 and on JAK1 were 22 nM, 128 nM and 3.1 nM, respectively.
Taken in the same sequence, the figures for `CN(c1ncnc2[nH]ccc12)[C@H]1CC[C@H](CS(=O)(=O)N2CC[C@H](O)[C@H](O)C2)CC1` [Example 22, (3R,4S)-1-[({trans-4-[methyl(7H-pyrrolo[2,3-d]pyrimidin-4-yl)amino]-cyclohexyl}methyl)sulfonyl]-piperidine-3,4-diol] were 32.5 nM, 138 nM and 11.5 nM.
`CN(c1ncnc2[nH]ccc12)[C@H]1CC[C@H](CS(=O)(=O)N2CC(O)C2)CC1` [Example 115, 1-[({trans-4-[methyl(7H-pyrrolo[2,3-d]pyrimidin-4-yl)amino]cyclohexyl}-methyl)sulfonyl]azetidin-3-ol]: the IC50 at JAK2 is 34.4 nM; at JAK3 it was 303 nM; at JAK1, 10.7 nM.
The corresponding values for `COCCOC1CCCN(S(=O)(=O)C[C@H]2CC[C@H](N(C)c3ncnc4[nH]ccc34)CC2)C1` (stereo partly drawn) [Example 139, N-[trans-4-({[3-(2-methoxyethoxy)piperidin-1-yl]sulfonyl}methyl)cyclohexyl]-N-methyl-7H-pyrrolo[2,3-d]pyrimidin-4-amine] are 0.00405 nM, 0.0368 nM and 0.00125 nM.
The corresponding values for `CN(c1ncnc2[nH]ccc12)[C@H]1CC[C@H](CS(=O)(=O)N2CC[C@@H](CO)C2)CC1` [Example 30, {(3R)-1-[({trans-4-[methyl(7H-pyrrolo[2,3-d]pyrimidin-4-yl)amino]-cyclohexyl}methyl)sulfonyl]-pyrrolidin-3-yl}-methanol] are 8.36 nM, 112 nM and 3.06 nM.
Taken in the same sequence, the figures for `CN(c1ncnc2[nH]ccc12)[C@H]1CC[C@H](CS(=O)(=O)N2CC[C@H](c3ccccn3)C2)CC1` [Example 107, N-methyl-N-(trans-4-{[(3-pyridin-2-ylpyrrolidin-1-yl)sulfonyl]methyl}cyclo-hexyl)-7H-pyrrolo[2,3-d]pyrimidin-4-amine] were 6.22 nM, 36.3 nM and 2.54 nM.
Consider `Cc1cccc(N2CCN(S(=O)(=O)C[C@H]3CC[C@H](N(C)c4ncnc5[nH]ccc45)CC3)CC2)n1` [Example 119, N-methyl-N-[trans-4-({[4-(6-methylpyridin-2-yl)piperazin-1-yl]sulfonyl}-methyl)cyclohexyl]-7H-pyrrolo[2,3-d]pyrimidin-4-amine], for which the IC50 at JAK2 came out at 13.7 nM; on JAK3 it was 88.9 nM; at JAK1, 6.48 nM.
Taken in the same sequence, the figures for `CN(c1ncnc2[nH]ccc12)[C@H]1CC[C@H](CS(=O)(=O)N2CCC[C@H](O)C2)CC1` [Example 14, (3S)-1-[({trans-4-[methyl-(7H-pyrrolo[2,3-d]-pyrimidin-4-yl)amino]-cyclohexyl}methyl)sulfonyl]-piperidin-3-ol] were 16.2 nM, 169 nM and 5.41 nM.
With `Cc1cc(CC[C@]2(O)CCN(S(=O)(=O)C[C@H]3CC[C@H](N(C)c4ncnc5[nH]ccc45)CC3)C2)on1` [Example 85, 3-[2-(3-methylisoxazol-5-yl)ethyl]-1-[({trans-4-[methyl(7H-pyrrolo[2,3-d]-pyrimidin-4-yl)amino]-cyclohexyl}methyl)sulfonyl] pyrrolidin-3-ol], the half-inhibitory concentration (IC50) on JAK2 stood at 46.2 nM; at JAK3, 286 nM; at JAK1, 10.5 nM.
`CN(c1ncnc2[nH]ccc12)[C@H]1CC[C@H](CS(=O)(=O)N2CCCC3(CNC(=O)C3)C2)CC1` (stereo partly drawn) [Example 127, 7-[({trans-4-[methyl(7H-pyrrolo[2,3-d]pyrimidin-4-yl)amino]cyclohexyl}-methyl)sulfonyl]-2,7-diazaspiro[4.5]decan-3-one]: the values for the IC50 at JAK2, on JAK3 and at JAK1 were 62.5 nM, 1000 nM and 14.4 nM, respectively.
As for `CN(c1ncnc2[nH]ccc12)[C@H]1CC[C@H](CS(=O)(=O)N2CCN(c3ncccc3C#N)CC2)CC1` [Example 122, 2-{4-[({trans-4-[methyl(7H-pyrrolo[2,3-d]pyrimidin-4-yl)amino]cyclohexyl}-methyl)sulfonyl]piperazin-1-yl}nicotinonitrile], the concentration for half-maximal inhibition (IC50) at JAK2 was 17.6 nM; at JAK3 it was 271 nM; at JAK1, 12.1 nM.
The corresponding values for `CN(c1ncnc2[nH]ccc12)[C@H]1CC[C@H](CS(=O)(=O)N2CC[C@H](Oc3ccccc3C#N)C2)CC1` [Example 88, 2-({(3S)-1-[({trans-4-[methyl(7H-pyrrolo[2,3-d]-pyrimidin-4-yl)amino]-cyclohexyl}methyl)sulfonyl]pyrrolidin-3-yl}oxy)-benzonitrile] are 23.4 nM, 413 nM and 6.73 nM.
Taken in the same sequence, the figures for `CN(c1ncnc2[nH]ccc12)[C@H]1CC[C@H](CS(=O)(=O)N2CC[C@@H](c3ccccc3)C2)CC1` [Example 100, N-methyl-N-(trans-4-{[(3-phenylpyrrolidin-1-yl)sulfonyl]methyl}cyclo-hexyl)-7H-pyrrolo[2,3-d]pyrimidin-4-amine] were 40.7 nM, 414 nM and 6.89 nM.
The corresponding values for `CN(c1ncnc2[nH]ccc12)[C@H]1CC[C@H](CS(=O)(=O)N2CC[C@H](S(=O)(=O)Cc3ccccc3)C2)CC1` [Example 82, N-[trans-4-({[3-(benzyl-sulfonyl)pyrrolidin-1-yl]sulfonyl}-methyl)-cyclohexyl]-N-methyl-7H-pyrrolo[2,3-d]pyrimidin-4-amine] are 17.4 nM, 146 nM and 7.34 nM.
In the case of `CN(c1ncnc2[nH]ccc12)[C@H]1CC[C@H](CS(=O)(=O)N2CCC[C@H](CO)C2)CC1` [Example 62, {1-[({trans-4-[methyl(7H-pyrrolo[2,3-d]pyrimidin-4-yl)amino]cyclohexyl}-methyl)sulfonyl]piperidin-3-yl}methanol], the concentration for half-maximal inhibition (IC50) was found to be 20.1 nM at JAK2, 233 nM on JAK3 and 2.4 nM on JAK1.
The corresponding values for `CN(c1ncnc2[nH]ccc12)[C@H]1CC[C@H](CS(=O)(=O)N2CCC[C@H](C#N)C2)CC1` [Example 64, 1-[({trans-4-[methyl(7H-pyrrolo[2,3-d]pyrimidin-4-yl)amino]cyclohexyl}-methyl)sulfonyl]piperidine-3-carbonitrile] are 32.1 nM, 263 nM and 2.71 nM.
Taken in the same sequence, the figures for `CN(c1ncnc2[nH]ccc12)[C@H]1CC[C@H](CS(=O)(=O)N2CCCC(OCC(N)=O)C2)CC1` (stereo partly drawn) [Example 7, 2-({1-[({trans-4-[methyl-(7H-pyrrolo[2,3-d]-pyrimidin-4-yl)amino]-cyclohexyl}methyl)sulfonyl]-piperidin-3-yl}oxy)-acetamide] were 18.3 nM, 173 nM and 2.96 nM.
The corresponding values for `Cc1ccc(CC2CCN(S(=O)(=O)C[C@H]3CC[C@H](N(C)c4ncnc5[nH]ccc45)CC3)CC2)nn1` [Example 48, N-methyl-N-{trans-4-[({4-[(6-methylpyridazin-3-yl)methyl]piperidin-1-yl}sulfonyl)methyl]cyclo-hexyl}-7H-pyrrolo[2,3-d]-pyrimidin-4-amine] are 84.9 nM, 753 nM and 22.7 nM.
On to `CN(c1ncnc2[nH]ccc12)[C@H]1CC[C@H](CS(=O)(=O)N2CC(c3nnn[nH]3)C2)CC1` [Example 113, N-methyl-N-[trans-4-({[3-(1H-tetrazol-5-yl)azetidin-1-yl]sulfonyl}methyl)-cyclohexyl]-7H-pyrrolo[2,3-d]pyrimidin-4-amine], for which the figures for the IC50 at JAK2, at JAK3 and at JAK1 were 9.99 nM, 111 nM and 1.55 nM, respectively.
